Assay results reported in patent publication US20230233569A1 (Revolution Medicines, Inc., priority 2020, published 2023).

Tests used:
[1] = system: AKT1/2/3 (Ser473) phosphorylation (mTORC2) in MDA-MB-468 cells; experiment: Cell based AlphaLISA assay, mTOR kinase cellular assay: inhibition of p-Akt (S473) in MDA-MB-468 cells; conditions: Homo sapiens, read-out: pIC50 for Inhibition of mTORC1 and mTORC2 Substarte Phosphorylation p-AKT1/2/3-(S473) (converted)
Method: Cell Based AlphaLISA Assays for Determining IC50 For Inhibition of P-Akt (S473), P-4E-BP1 (T37/46), and P-P70S6K (T389) in MDA-MB-468 Cells
mTOR Kinase Cellular Assay
To measure functional activity of mTORC1 and mTORC2 in cells the phosphorylation of 4EBP1 (Thr37/46) and P70S6K (Thr389), and AKT1/2/3 (Ser473) was monitored using AlphaLisa SureFire Ultra Kits (Perkin Elmer). MDA-MB-468 cells (ATCC® HTB-132) were cultured in 96-well tissue culture plates and treated with compounds in the disclosure at concentrations varying from 0.017-1,000 nM for two to four hours at 37° C. Incubations were terminated by removal of the assay buffer and addition of lysis buffer provided with the assay kit. Samples were processed according to the manufacturer's instructions. The Alpha signal from the respective phosphoproteins was measured in duplicate using a microplate reader (Envision, Perkin-Elmer or Spectramax M5, Molecular Devices). Inhibitor concentration response curves were analyzed using normalized IC50 regression curve fitting with control based normalization.

[2] = system: AsPC-1 (K-Ras G12D); experiment: Potency assay: pERK; format: cell-based; conditions: Homo sapiens, ASPC1, read-out: pERK EC50
[3] = system: AsPC-1 (K-Ras G12D); experiment: CellTiter-Glo cell viability assay; format: cell-based; conditions: Homo sapiens, ASPC1, 120 h, read-out: AsPC-1 Cell Viability assay data IC50, K-Ras G12D, 5-day treatment
Method: Determination of Cell Viability in RAS Mutant Cancer Cell Lines
Protocol: CellTiter-Glo® Cell Viability Assay
Note—The following protocol describes a procedure for monitoring cell viability of K-Ras mutant cancer cell lines in response to a compound of the invention. Other RAS isoforms may be employed, though the number of cells to be seeded will vary based on cell line used.
Test compounds (132.5 nL) were directly dispensed into the assay plates containing cells. […] On day 5, assay plates and their contents were equilibrated to room temperature for approximately 30 minutes. […] Luminescence was measured using the PerkinElmer Enspire. Data were normalized by the following: (Sample signal/Avg. DMSO)*100. The data were fit using a four-parameter logistic fit.

[4] = molecular target: KRAS G12D (Homo sapiens, UniProt P01116+P62937, G12D); experiment: Ras-Raf disruption / FRET / MOA assay (BRAF RBD); format: biochemical; conditions: KRAS G12D FRET data IC50, Ras-Raf disruption, with Cyclophilin A
Chain of KRAS G12D (P01116 1-169 isoform P01116-2 G12D limits assumed): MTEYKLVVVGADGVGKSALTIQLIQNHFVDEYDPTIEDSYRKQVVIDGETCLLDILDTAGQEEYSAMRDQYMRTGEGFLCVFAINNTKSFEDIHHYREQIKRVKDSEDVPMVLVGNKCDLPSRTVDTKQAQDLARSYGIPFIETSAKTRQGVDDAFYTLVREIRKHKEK
Chain of KRAS G12D (P62937 whole entry): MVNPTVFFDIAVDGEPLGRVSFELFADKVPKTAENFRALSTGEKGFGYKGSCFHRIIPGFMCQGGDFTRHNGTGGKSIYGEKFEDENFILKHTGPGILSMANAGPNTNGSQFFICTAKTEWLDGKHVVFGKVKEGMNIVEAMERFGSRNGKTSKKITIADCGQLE
How it was run: (§1)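 TR-FRET in 25 mM HEPES pH 7.3, 100 mM NaCl, 5 mM MgCl2, 0.1% BSA, 0.002% Tween20 with 25 μM Cyclophilin A, 12.5 nM His6-Ras-GMPPNP, 50 nM GST-BRAF RBD; compound 10-point 3-fold series from 30 μM. After 3 h at 25 °C, Eu anti-His/APC anti-GST added for 1.5 h; IC50 from ratio decrease versus DMSO.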

[5] = molecular target: KRAS G12S (Homo sapiens, UniProt P01116+P62937, G12S); experiment: Ras-Raf disruption / FRET / MOA assay (BRAF RBD); format: biochemical; conditions: KRAS G12S FRET data IC50, Ras-Raf disruption, with Cyclophilin A
Chain of KRAS G12S (P01116 1-169 isoform P01116-2 G12S limits assumed): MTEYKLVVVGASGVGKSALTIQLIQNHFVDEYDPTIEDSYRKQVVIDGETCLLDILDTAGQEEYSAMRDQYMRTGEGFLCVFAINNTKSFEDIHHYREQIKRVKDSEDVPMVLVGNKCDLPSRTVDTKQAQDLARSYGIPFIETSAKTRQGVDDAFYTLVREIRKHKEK
Chain of KRAS G12S (P62937 whole entry): as the sequence (P62937 whole entry) above
How it was run: as §1

[6] = molecular target: KRAS G12V (Homo sapiens, UniProt P01116+P62937, G12V); experiment: Ras-Raf disruption / FRET / MOA assay (BRAF RBD); format: biochemical; conditions: KRAS G12V FRET data IC50, Ras-Raf disruption, with Cyclophilin A
Chain of KRAS G12V (P01116 1-169 isoform P01116-2 G12V limits assumed): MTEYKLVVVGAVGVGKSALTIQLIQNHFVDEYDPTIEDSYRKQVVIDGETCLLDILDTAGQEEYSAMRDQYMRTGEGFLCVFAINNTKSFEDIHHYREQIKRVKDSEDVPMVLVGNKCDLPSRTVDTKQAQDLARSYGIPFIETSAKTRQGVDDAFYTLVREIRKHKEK
Chain of KRAS G12V (P62937 whole entry): as the sequence (P62937 whole entry) above
How it was run: as §1

[7] = molecular target: KRAS G13C (Homo sapiens, UniProt P01116+P62937, G13C); experiment: Ras-Raf disruption / FRET / MOA assay (BRAF RBD); format: biochemical; conditions: KRAS G13C FRET data IC50, Ras-Raf disruption, with Cyclophilin A
Chain of KRAS G13C (P01116 1-169 isoform P01116-2 G13C limits assumed): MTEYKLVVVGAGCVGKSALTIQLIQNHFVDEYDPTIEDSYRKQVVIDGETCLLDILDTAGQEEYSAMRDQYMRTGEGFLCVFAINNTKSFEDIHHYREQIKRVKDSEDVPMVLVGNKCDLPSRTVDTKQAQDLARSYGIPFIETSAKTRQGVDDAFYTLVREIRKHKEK
Chain of KRAS G13C (P62937 whole entry): as the sequence (P62937 whole entry) above
How it was run: as §1

[8] = molecular target: KRAS G13D (Homo sapiens, UniProt P01116+P62937, G13D); experiment: Ras-Raf disruption / FRET / MOA assay (BRAF RBD); format: biochemical; conditions: KRAS G13D FRET data IC50, Ras-Raf disruption, with Cyclophilin A
Chain of KRAS G13D (P01116 1-169 isoform P01116-2 G13D limits assumed): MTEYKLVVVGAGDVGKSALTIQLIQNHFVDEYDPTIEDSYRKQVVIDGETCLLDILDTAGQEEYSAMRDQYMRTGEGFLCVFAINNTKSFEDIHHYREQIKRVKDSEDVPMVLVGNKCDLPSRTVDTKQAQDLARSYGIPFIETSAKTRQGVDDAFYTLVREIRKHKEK
Chain of KRAS G13D (P62937 whole entry): as the sequence (P62937 whole entry) above
How it was run: as §1

[9] = molecular target: KRAS Q61H (Homo sapiens, UniProt P01116+P62937, Q61H); experiment: Ras-Raf disruption / FRET / MOA assay (BRAF RBD); format: biochemical
Chain of KRAS Q61H (P01116 1-169 isoform P01116-2 Q61H limits assumed): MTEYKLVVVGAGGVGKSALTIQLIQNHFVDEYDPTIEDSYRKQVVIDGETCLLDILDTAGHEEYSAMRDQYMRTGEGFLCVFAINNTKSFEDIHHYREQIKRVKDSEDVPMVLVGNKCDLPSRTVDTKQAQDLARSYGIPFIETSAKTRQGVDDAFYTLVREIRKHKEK
Chain of KRAS Q61H (P62937 whole entry): as the sequence (P62937 whole entry) above
How it was run: as §1

[10] = molecular target: KRAS WT (Homo sapiens, UniProt P01116+P62937); experiment: Ras-Raf disruption / FRET / MOA assay (BRAF RBD); format: biochemical; conditions: KRAS WT FRET data IC50, Ras-Raf disruption, with Cyclophilin A
Chain of KRAS WT (P01116 1-169 isoform P01116-2 limits assumed): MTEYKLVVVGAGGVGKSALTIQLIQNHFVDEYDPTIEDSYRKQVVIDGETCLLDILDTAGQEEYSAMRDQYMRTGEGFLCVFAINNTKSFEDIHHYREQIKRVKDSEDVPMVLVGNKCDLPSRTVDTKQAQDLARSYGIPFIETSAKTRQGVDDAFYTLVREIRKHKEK
Chain of KRAS WT (P62937 whole entry): as the sequence (P62937 whole entry) above
How it was run: as §1

[11] = molecular target: NRAS G12C (Homo sapiens, UniProt P01111+P62937, G12C); experiment: Ras-Raf disruption / FRET / MOA assay (BRAF RBD); format: biochemical; conditions: NRAS G12C FRET data IC50, NRAS G12C
Chain of NRAS G12C (P01111 whole entry G12C): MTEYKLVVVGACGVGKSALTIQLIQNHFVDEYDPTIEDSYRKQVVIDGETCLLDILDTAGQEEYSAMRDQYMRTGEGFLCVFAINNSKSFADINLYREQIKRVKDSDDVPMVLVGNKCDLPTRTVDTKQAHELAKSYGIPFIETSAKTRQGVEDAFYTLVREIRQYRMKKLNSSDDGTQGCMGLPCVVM
Chain of NRAS G12C (P62937 whole entry): as the sequence (P62937 whole entry) above
How it was run: as §1

[12] = molecular target: NRAS Q61K (Homo sapiens, UniProt P01111+P62937, Q61K); experiment: Ras-Raf disruption / FRET / MOA assay (BRAF RBD); format: biochemical
Chain of NRAS Q61K (P01111 whole entry Q61K): as the sequence (P01111 whole entry G12C) above, with C12G, Q61K counted along it
Chain of NRAS Q61K (P62937 whole entry): as the sequence (P62937 whole entry) above
How it was run: as §1

[13] = molecular target: NRAS Q61R (Homo sapiens, UniProt P01111+P62937, Q61R); experiment: Ras-Raf disruption / FRET / MOA assay (BRAF RBD); format: biochemical
Chain of NRAS Q61R (P01111 whole entry Q61R): as the sequence (P01111 whole entry G12C) above, with C12G, Q61R counted along it
Chain of NRAS Q61R (P62937 whole entry): as the sequence (P62937 whole entry) above
How it was run: as §1

[14] = molecular target: NRAS WT (Homo sapiens, UniProt P01111+P62937); experiment: Ras-Raf disruption / FRET / MOA assay (BRAF RBD); format: biochemical
Chain of NRAS WT (P01111 whole entry): as the sequence (P01111 whole entry G12C) above, with C12G counted along it
Chain of NRAS WT (P62937 whole entry): as the sequence (P62937 whole entry) above
How it was run: as §1

[15] = molecular target: KRAS G12C (Homo sapiens, UniProt P01116+P62937, G12C); experiment: Ras-Raf disruption / FRET / MOA assay (BRAF RBD); format: biochemical; conditions: KRAS G12C FRET data IC50, Ras-Raf disruption, with Cyclophilin A
Chain of KRAS G12C (P01116 1-169 isoform P01116-2 G12C limits assumed): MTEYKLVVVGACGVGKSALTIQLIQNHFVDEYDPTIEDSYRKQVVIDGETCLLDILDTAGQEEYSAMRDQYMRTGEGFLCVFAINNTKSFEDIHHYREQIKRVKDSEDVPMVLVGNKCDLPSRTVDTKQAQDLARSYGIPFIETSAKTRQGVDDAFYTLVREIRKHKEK
Chain of KRAS G12C (P62937 whole entry): as the sequence (P62937 whole entry) above
How it was run: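 His6-K-Ras G12C-GMPPNP (12.5 nM), GST-BRAF RBD (50 nM) and tagless Cyclophilin A (25 μM) incubated 3 h at 25 °C with compound (10-point 3-fold series from 30 μM), pH 7.3 HEPES buffer. Anti-His Eu/anti-GST APC added for 1.5 h; decreased TR-FRET ratio vs DMSO gives IC50.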

Structure (SMILES)	IC50 [1]	EC50 [2]	IC50 [3]	IC50 [4]	IC50 [5]	IC50 [6]	IC50 [7]	IC50 [8]	IC50 [9]	IC50 [10]	IC50 [11]	IC50 [12]	IC50 [13]	IC50 [14]	IC50 [15]
CO[C@H]1C[C@@H]2CC[C@@H](C)[C@@](O)(O2)C(=O)C(=O)N2CCCC[C@H]2C(=O)O[C@H]([C@H](C)C[C@@H]2CC[C@@H](OC(=O)NCc3cnc(N4CCN(C(=O)CCOCCN5CCN(c6ncc(C(=O)N7CCc8cc(Cn9nc(-c%10ccc%11oc(N)nc%11c%10)c%10c(N)ncnc%109)ccc8C7)cn6)CC5)CC4)nc3)[C@H](OC)C2)CC[C@H](C)/C=C(\C)[C@@H](O)[C@@H](OC)C(=O)[C@H](C)C[C@H](C)/C=C/C=C/C=C/1C [Example 115]	≤ 3.16 nM	–	–	–	–	–	–	–	–	–	–	–	–	–	–
CCn1c(-c2cccnc2[C@H](C)OC)c2c3cc(ccc31)-c1cc(O)cc(c1)C[C@H](NC(=O)[C@H](C(C)C)N(C)C(=O)CN(C)C(=O)[C@H]1CN1C1COC1)C(=O)N1CCC[C@H](N1)C(=O)OCC(C)(C)C2 (some centres unmarked) [Example 275]	–	< 5 µM	1000 to 10000 nM	100 to 1000 nM	10 to 100 nM	100 to 1000 nM	10 to 100 nM	100 to 1000 nM	10 to 100 nM	100 to 1000 nM	10 to 100 nM	100 to 1000 nM	100 to 1000 nM	100 to 1000 nM	10 to 100 nM
CCn1c(-c2cccnc2[C@H](C)OC)c2c3cc(ccc31)-c1cc(O)cc(c1)C[C@H](NC(=O)[C@H](C(C)C)N(C)C(=O)CN(C)C(=O)[C@H]1CN1CCCN1CCOC1=O)C(=O)N1CCC[C@H](N1)C(=O)OCC(C)(C)C2 (some centres unmarked) [Example 272]	–	< 5 µM	1000 to 10000 nM	100 to 1000 nM	10 to 100 nM	10 to 100 nM	10 to 100 nM	100 to 1000 nM	10 to 100 nM	10 to 100 nM	< 10 nM	100 to 1000 nM	100 to 1000 nM	10 to 100 nM	< 10 nM
CCn1c(-c2cccnc2[C@H](C)OC)c2c3cc(ccc31)-c1cc(O)cc(c1)C[C@H](NC(=O)[C@H](C(C)C)N(C)C(=O)CN(C)C(=O)[C@@H]1CN1CC(=O)N(C)C)C(=O)N1CCC[C@H](N1)C(=O)OCC(C)(C)C2 (some centres unmarked) [Example 271]	–	< 5 µM	> 10000 nM	100 to 1000 nM	10 to 100 nM	100 to 1000 nM	10 to 100 nM	100 to 1000 nM	10 to 100 nM	10 to 100 nM	< 10 nM	100 to 1000 nM	100 to 1000 nM	100 to 1000 nM	< 10 nM
CCn1c(-c2cccnc2[C@H](C)OC)c2c3cc(ccc31)-c1cc(O)cc(c1)C[C@H](NC(=O)[C@H](C(C)C)N(C)C(=O)CN(C)C(=O)[C@H]1N[C@H]1C1COC1)C(=O)N1CCC[C@H](N1)C(=O)OCC(C)(C)C2 [Example 282]	–	< 5 µM	1000 to 10000 nM	10 to 100 nM	10 to 100 nM	10 to 100 nM	< 10 nM	10 to 100 nM	10 to 100 nM	10 to 100 nM	10 to 100 nM	100 to 1000 nM	100 to 1000 nM	10 to 100 nM	10 to 100 nM
CCn1c(-c2cccnc2[C@H](C)OC)c2c3cc(ccc31)-c1cc(O)cc(c1)C[C@H](NC(=O)[C@H](C(C)C)N(C)C(=O)CN(C)C(=O)[C@@H]1N[C@@H]1C1COC1)C(=O)N1CCC[C@H](N1)C(=O)OCC(C)(C)C2 [Example 281]	–	< 5 µM	100 to 1000 nM	10 to 100 nM	< 10 nM	10 to 100 nM	10 to 100 nM	10 to 100 nM	< 10 nM	10 to 100 nM	< 10 nM	10 to 100 nM	100 to 1000 nM	10 to 100 nM	< 10 nM
